{"source": "paper PMC6797481", "about": "“Identification of an allosteric binding site on the human glycine transporter, GlyT2, for bioactive lipid analgesics” (eLife, 2019)", "key": {"GlyT2 F569A/V/L mutants": {"tested_on": "GlyT2 F569A/V/L mutants", "conditions": "glycine transport, GlyT2 F569A/V/L (TM8)", "method": "(§1) Human GlyT1b or GlyT2a (herein referred to as GlyT1 and GlyT2) cDNA were sub-cloned into the plasmid oocyte transcription vector (pOTV). Site-directed mutagenesis was performed using traditional PCR techniques, and sequences confirmed by the Australian Genome Research Facility (Sydney, Australia). WT and mutant plasmid DNA were linearised with SpeI (New England Biolabs (Genesearch) Arundel, Australia) and RNA transcribed by T7 RNA polymerase using the mMessagemMachine kit (Ambion, TX, USA).\n(§2) Oocytes were extracted from female Xenopus laevis frogs and detached from follicle cell containing lobes by digestion with 2 mg/mL collagenase A (Boehringer, Mannheim, Germany). Defoliculated stage V-VI oocytes were injected with 4.6 ng of cRNA encoding WT or mutant transporter (Drummond Nanoinject, Drummond Scientific Co., Broomall, PA, USA). Surgical proceedures have been approved by the University of Sydney Animal Ethics Committee (protocol 2016/970). The oocytes were stored at 16–18°C for 2–5 days in ND96 solution (96 mM NaCl, 2 mM KCL, 1 mM MgCl2, 1.8 mM CaCl2, 5 mM HEPES, pH 7.55), supplemented with 2.5 mM sodium pyruvate, 0.5 mM theophylline, 50 µg/mL gentamicin and […] tetracycline.\n(§3) 2–5 days following injection, glycine transport currents were measured at −60 mV using Geneclamp 500 amplifier (Axon Instruments, Foster City, CA, USA) with a Powerlab 2/20 chart recorder (ADInstruments, Sydney, Australia) and chart software (ADInstruments). All data were subsequently analysed using GraphPad Prism 7.02 (GraphPad Software, San Diego, CA).\n(§4) The function of each mutant transporter was tested by measuring glycine concentration dependent transport currents in ND96 (96 mM Na^+) to drive transport. EC50 values were determined using the modified Michaelis-Menten equation:(1) I=([GIy].Imax)/EC50+[GIy] where I is current (nA), [Gly] is the concentration of glycine, Imax is the current generated by a maximal concentration of glycine (300 µM) and EC50 is the concentration of glycine that generates a half maximal current. Values are presented as mean ± SEM obtained fromn ≥3 cells from at least two batches of oocytes. To determine if mutations affected glycine transport, one way ANOVA tests were employed, with a Dunnett’s post-hoc test used for comparison with WT GlyT2. For L425I comparison with WT GlyT1 a two-tailed t-test was used. Statistical significance were represented as p<0.05 *, p<0.01 **, p<0.001 *** etc. in the following figures.\n(§5) Glycine concentration response curves were performed on WT and mutant transporters to generate EC50 values. Transport currents were measured in the presence of increasing concentrations of glycine (1 – 300 μM)."}, "GlyT2 T634A mutant": {"target": "GlyT2 T634A mutant (Homo sapiens, UniProt Q9Y345, T634A)", "sequence (Q9Y345 whole entry T634A)": "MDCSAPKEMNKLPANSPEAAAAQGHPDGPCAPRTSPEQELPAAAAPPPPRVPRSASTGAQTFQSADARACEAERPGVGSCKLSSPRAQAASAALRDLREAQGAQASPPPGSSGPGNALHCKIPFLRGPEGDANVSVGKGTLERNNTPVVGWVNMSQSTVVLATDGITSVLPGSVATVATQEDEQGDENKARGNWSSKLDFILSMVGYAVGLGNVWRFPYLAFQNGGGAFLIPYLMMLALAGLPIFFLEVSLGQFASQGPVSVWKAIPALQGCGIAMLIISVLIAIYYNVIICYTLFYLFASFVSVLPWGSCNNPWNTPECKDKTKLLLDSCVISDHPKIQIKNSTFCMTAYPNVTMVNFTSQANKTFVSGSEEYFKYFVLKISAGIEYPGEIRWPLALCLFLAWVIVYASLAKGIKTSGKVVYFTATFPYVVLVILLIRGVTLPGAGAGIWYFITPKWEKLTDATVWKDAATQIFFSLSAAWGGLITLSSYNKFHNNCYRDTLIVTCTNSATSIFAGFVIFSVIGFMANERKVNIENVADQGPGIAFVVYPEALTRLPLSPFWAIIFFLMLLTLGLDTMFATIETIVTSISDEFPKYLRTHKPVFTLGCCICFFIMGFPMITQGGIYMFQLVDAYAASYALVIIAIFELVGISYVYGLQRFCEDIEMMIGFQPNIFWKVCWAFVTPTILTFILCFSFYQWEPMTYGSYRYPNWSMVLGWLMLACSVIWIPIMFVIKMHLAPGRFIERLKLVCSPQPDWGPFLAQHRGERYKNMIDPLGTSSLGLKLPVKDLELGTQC", "conditions": "read-out: Glycine EC50; glycine transport, GlyT2 T634A (vestibule allosteric site)", "method": "as §1, §2, §3, §4, §5"}, "GlyT2 D469A mutant": {"target": "GlyT2 D469A mutant (Homo sapiens, UniProt Q9Y345, D469A)", "sequence (Q9Y345 whole entry D469A)": "as the sequence (Q9Y345 whole entry T634A) above, with D469A, A634T counted along it", "conditions": "read-out: Glycine EC50; glycine transport, GlyT2 D469A (vestibule allosteric site)", "method": "as §1, §2, §3, §4, §5"}, "GlyT2 S696A mutant": {"target": "GlyT2 S696A mutant (Homo sapiens, UniProt Q9Y345, S696A)", "sequence (Q9Y345 whole entry S696A)": "as the sequence (Q9Y345 whole entry T634A) above, with A634T, S696A counted along it", "conditions": "read-out: Glycine EC50; glycine transport, GlyT2 S696A (vestibule allosteric site)", "method": "as §1, §2, §3, §4, §5"}, "GlyT2 E701A mutant": {"target": "GlyT2 E701A mutant (Homo sapiens, UniProt Q9Y345, E701A)", "sequence (Q9Y345 whole entry E701A)": "as the sequence (Q9Y345 whole entry T634A) above, with A634T, E701A counted along it", "conditions": "read-out: Glycine EC50; glycine transport, GlyT2 E701A (vestibule allosteric site)", "method": "as §1, §2, §3, §4, §5"}, "GlyT2 T472A mutant": {"target": "GlyT2 T472A mutant (Homo sapiens, UniProt Q9Y345, T472A)", "sequence (Q9Y345 whole entry T472A)": "as the sequence (Q9Y345 whole entry T634A) above, with T472A, A634T counted along it", "conditions": "glycine transport, GlyT2 T472A (vestibule allosteric site)", "method": "as §1, §2, §3, §4, §5"}, "GlyT2 P429A mutant": {"target": "GlyT2 P429A mutant (Homo sapiens, UniProt Q9Y345, P429A)", "sequence (Q9Y345 whole entry P429A)": "as the sequence (Q9Y345 whole entry T634A) above, with P429A, A634T counted along it", "conditions": "glycine transport, GlyT2 P429A (TM5)", "method": "as §1, §2, §3, §4, §5"}, "GlyT2 Q473A mutant": {"target": "GlyT2 Q473A mutant (Homo sapiens, UniProt Q9Y345, Q473A)", "sequence (Q9Y345 whole entry Q473A)": "as the sequence (Q9Y345 whole entry T634A) above, with Q473A, A634T counted along it", "conditions": "read-out: Glycine EC50; glycine transport, GlyT2 Q473A (vestibule allosteric site)", "method": "as §1, §2, §3, §4, §5"}, "GlyT2 R439L mutant": {"target": "T1, GlyT2 R439L mutant (Homo sapiens, UniProt Q9Y345, R439L)", "T1 construct": "expressed in transfected cells; host or cells: Xenopus laevis oocytes (cRNA injection)", "T1 sequence (Q9Y345 1-797 R439L)": "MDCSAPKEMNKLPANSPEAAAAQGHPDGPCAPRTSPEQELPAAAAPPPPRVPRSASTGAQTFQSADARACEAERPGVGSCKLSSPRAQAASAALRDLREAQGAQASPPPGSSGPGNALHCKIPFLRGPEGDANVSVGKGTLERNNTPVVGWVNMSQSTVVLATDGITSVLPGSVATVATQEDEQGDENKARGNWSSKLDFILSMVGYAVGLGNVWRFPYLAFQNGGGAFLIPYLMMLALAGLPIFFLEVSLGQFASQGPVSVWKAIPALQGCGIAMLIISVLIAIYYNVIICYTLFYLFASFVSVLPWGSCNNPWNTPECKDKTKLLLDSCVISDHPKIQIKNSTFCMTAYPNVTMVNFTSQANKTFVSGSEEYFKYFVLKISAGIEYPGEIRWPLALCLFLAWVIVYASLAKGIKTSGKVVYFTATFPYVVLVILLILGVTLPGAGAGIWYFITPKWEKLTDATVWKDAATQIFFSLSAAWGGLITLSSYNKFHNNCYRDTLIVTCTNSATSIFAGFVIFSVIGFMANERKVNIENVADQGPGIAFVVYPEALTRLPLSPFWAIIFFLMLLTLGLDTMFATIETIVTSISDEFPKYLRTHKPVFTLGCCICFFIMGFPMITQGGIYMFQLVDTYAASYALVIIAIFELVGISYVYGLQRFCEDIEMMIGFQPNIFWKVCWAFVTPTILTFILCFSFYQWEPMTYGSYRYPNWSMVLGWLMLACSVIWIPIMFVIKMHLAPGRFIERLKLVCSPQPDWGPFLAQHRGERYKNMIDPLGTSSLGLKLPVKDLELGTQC", "assay": "Glycine transport currents, two electrode voltage clamp, oocytes expressing GlyT2 R439L", "format": "cell-based", "method": "Glycine was first applied to establish maximal transport current.\nCompounds were tested for inhibition of glycine transport on Xenopus laevis oocytes expressing mutant GlyT1 and GlyT2 transporters. n values are in brackets, with measurements taken from at least 2 batches of oocytes."}}, "data": [{"compound": "NCC(=O)O", "note": "[Glycine]", "values": [{"measurement": "Glycine EC50", "setting": "GlyT2 F569A/V/L mutants", "value": "No transport currents"}, {"measurement": "EC50", "setting": "GlyT2 T634A mutant", "value": "28.6 ± 3.2", "unit": "µM"}, {"measurement": "EC50", "setting": "GlyT2 D469A mutant", "value": "110 ± 12.8", "unit": "µM"}, {"measurement": "EC50", "setting": "GlyT2 S696A mutant", "value": "25.6 ± 2.7", "unit": "µM"}, {"measurement": "EC50", "setting": "GlyT2 E701A mutant", "value": "16.5 ± 0.87", "unit": "µM"}, {"measurement": "Glycine EC50", "setting": "GlyT2 T472A mutant", "value": "No transport currents"}, {"measurement": "Glycine EC50", "setting": "GlyT2 P429A mutant", "value": "No transport currents"}, {"measurement": "EC50", "setting": "GlyT2 Q473A mutant", "value": "498 ± 146", "unit": "µM"}, {"measurement": "EC50", "setting": "GlyT2 R439L mutant; glycine transport, GlyT2 R439L (TM5)", "value": "23 ± 4", "unit": "µM"}]}, {"compound": "CCCCCCCC/C=C\\CCCCCCCC(=O)N[C@@H](Cc1c[nH]c2ccccc12)C(=O)O", "note": "[oleoyl l-Tryptophan]", "values": [{"measurement": "IC50", "setting": "GlyT2 R439L mutant; GlyT2 R439L, mean (95% CI)", "value": 109, "unit": "nM"}, {"measurement": "% Max. inhibition", "setting": "GlyT2 R439L mutant; GlyT2 R439L, mean ± SEM", "value": "75.3 ± 4.2 (p=0.1040) %"}]}]}
